Experimental data: US5011825A, “Peptides influencing diuresis and natriuresis, a process for their preparation, agents containing them, and their use” (Hoechst Aktiengesellschaft, priority 1986, dated 1991)
Where a SMILES comes first, the peptide text is derived from it. [ ]: non-standard residue; d: D form. The star is where a group is joined. d(aIle) = CC[C@H](C)[C@@H](N)C(=O)O; code Z = not defined here; Cbz = O=C(OCc1ccccc1)*; OBn = c1ccc(CO*)cc1; OtBu = CC(C)(C)O*; tBu = CC(C)(C)*

System: rat
Test: Diuretic, natriuretic and kaliuretic action, Experimental Design 2 (anesthetized rats, stepwise halved NaCl infusion, i.v. bolus)
Type: in vivo
Settings: dose 1 mg/kg rat i.v. bolus, collection period 120 min; for Urine: control 0.520; for K^+: control 25.8; for Na^+: control 31.5
Protocol: B. Diuretic, natruiuretic and kaliuretic action of the peptides according to the invention in Experimental Design 2 (dose: 1 mg/kg rat, colection period: 120 min.)
Experimental Design 2: The rats were anesthetized with 0.1 ml of 10% strength thiobutabarbital sodium/100 g of body weight i.p. They received an NaCl infusion from 60 min before administration of the substance up to administration of the substance (2.5 ml of a 0.85% strength NaCl solution .h^-1.0.1 kg^-1 body weight). After ad
ministration of the substance, the infusion rate was halved for one hour (1.25 ml.h^-1.0.1 kg^-1) Thereafter the infusion rate was again halved up to the end of the experiment (0.625 ml.h^1.0.1 kg^-1). The test substance was administered as i.v. bolus in 0.1 ml of a 0.85% strength NaCl solution/100 g of body weight.

| Molecule | Urine [mL/kg] | K^+ [µmol/kg] | Na^+ [µmol/kg] |
| --- | --- | --- | --- |
| CC[C@H](C)[C@H](NC(=O)[C@H](CCCNC(=N)N)NC(=O)OCc1ccccc1)C(=O)N[C@@H](CC(C)C)C(=O)N[C@H](CCCNC(=N)N)C(=O)N[C@H](C(=O)OCc1ccccc1)[C@@H](C)CC [Z-Arg-Ile-Leu-D-Arg-Ile-OBzl] (Cbz-RIL[dR]I-OBn) | 0.52 | 36.2 | 66.9 |
| CC[C@H](C)[C@H](NC(=O)[C@@H](N)CCCNC(=N)N)C(=O)N[C@@H](COC(C)(C)C)C(=O)N[C@@H](CCCNC(=N)N)C(=O)N1CCC[C@H]1C(=O)OC(C)(C)C [H-Arg-Ile-Ser(tBu)-Arg-Pro-OtBu] (H-RIS(tBu)RP-OtBu) | 0.63 | 31.5 | 136.8 |
| CC[C@H](C)[C@H](NC(=O)[C@@H](N)CCCNC(=N)N)C(=O)N[C@@H](CC(C)C)C(=O)N[C@@H](CCCNC(=N)N)C(=O)N[C@@H](C(=O)O)C(C)C [H-Arg-Ile-Leu-Arg-D-Val-OH] (H-RILR[dV]-OH) | 0.56 | 38.9 | 68.8 |
| CC[C@H](C)[C@H](NC(=O)[C@@H](N)CCCNC(=N)N)C(=O)N[C@H](CC(C)C)C(=O)N[C@@H](CCCNC(=N)N)C(=O)N[C@@H](C(=O)O)C(C)C [H-Arg-Ile-D-Leu-Arg-D-Val-OH] (H-RI[dL]R[dV]-OH) | 0.31 | 32.8 | 68.4 |
| Cbz-[dR]I[dL]RI-OBn | 0.19 | 20.4 | 37.3 |
| CC[C@H](C)[C@H](NC(=O)[C@H](CCCNC(=N)N)NC(=O)OCc1ccccc1)C(=O)N[C@H](CC(C)C)C(=O)N[C@@H](CCCNC(=N)N)C(=O)N[C@@H](C(=O)OCc1ccccc1)C(C)C [Z-Arg-Ile-D-Leu-Arg-D-Val-OBzl] (Cbz-RI[dL]R[dV]-OBn) | 0.48 | 43.8 | 79.0 |
| Cbz-[dR]IL[dR]I-OBn | 0.29 | 30.1 | 48.4 |
| CC[C@H](C)[C@H](NC(=O)[C@@H](CCCNC(=N)N)NC(=O)[C@H](CC(C)C)NC(=O)[C@@H](NC(=O)[C@H](N)CCCNC(=N)N)[C@@H](C)CC)C(=O)O [H-D-Arg-Ile-Leu-D-Arg-Ile-OH] (H-[dR]IL[dR]I-OH) | 0.28 | 33.9 | 61.4 |
| H-KFLKF-NH2 [H-Lys-Phe-Leu-Lys-Phe-NH2] | 0.25 | 16.7 | 36.8 |
| CC[C@H](C)[C@H](NC(=O)[C@H](CCCNC(=N)N)NC(=O)OCc1ccccc1)C(=O)N[C@@H](CC(C)C)C(=O)N[C@@H](CCCNC(=N)N)C(=O)N[C@@H](C(=O)OCc1ccccc1)C(C)C [Z-Arg-Ile-Leu-Arg-D-Val-OBzl] (Cbz-RILR[dV]-OBn) | 0.43 | 36.7 | 88.6 |
| H-KFLKF-OH [H-Lys-Phe-Leu-Lys-Phe-OH] | 0.52 | 31.0 | 80.2 |
| CC[C@H](C)[C@H](NC(=O)[C@H](CCCNC(=N)N)NC(=O)[C@H](CC(C)C)NC(=O)[C@H](NC(=O)[C@@H](N)CCCNC(=N)N)C(C)C)C(=O)O [H-Arg-D-Val-Leu-Arg-Ile-OH] (H-R[dV]LRI-OH) | 0.57 | 34.9 | 83.77 |
| Z-D-Arg-Ile-Leu-Arg-Ile-OBzl ({code Z}-[dR]ILRI-OBn; reading uncertain; also: printed as Z-D-Arg-Ile-Leu-Arg-Ile-OBzl) | 0.59 | 38.1 | 86.3 |
| CC[C@H](C)[C@H](NC(=O)[C@H](CCCNC(=N)N)NC(=O)[C@@H](CC(C)C)NC(=O)[C@@H](NC(=O)[C@H](N)CCCNC(=N)N)[C@@H](C)CC)C(=O)O [H-D-Arg-Ile-D-Leu-Arg-Ile-OH] (H-[dR]I[dL]RI-OH) | 1.13 | 49.7 | 115.9 |
| CC[C@H](C)[C@H](NC(=O)[C@H](CCCNC(=N)N)NC(=O)[C@H](CC(C)C)NC(=O)[C@@H](NC(=O)[C@H](N)CCCNC(=N)N)[C@@H](C)CC)C(=O)O [H-D-Arg-Ile-Leu-Arg-Ile-OH] (H-[dR]ILRI-OH) | 0.22 | 33.6 | 55.3 |
| CC[C@H](C)[C@H](NC(=O)[C@H](CCCNC(=N)N)NC(=O)[C@@H](CC(C)C)NC(=O)[C@H](NC(=O)[C@H](N)CCCNC(=N)N)[C@@H](C)CC)C(=O)O [H-D-Arg-D-allo-Ile-D-Leu-Arg-Ile-OH] (H-[dR][d(aIle)][dL]RI-OH) | 0.87 | 35.5 | 95.1 |
| H-RLQRL-OH [H-Arg-Leu-Gln-Arg-Leu-OH, H-Arg-Leu-Gln-Arg-Leu--OH] | 0.25 | 23.7 | 30.2 |
| CC(C)C[C@H](NC(=O)[C@H](NC(=O)[C@H](CCCNC(=N)N)NC(=O)OCc1ccccc1)C(C)C)C(=O)N[C@@H](CCCNC(=N)N)C(=O)N[C@@H](C(=O)OCc1ccccc1)C(C)C [Z-Arg-D-Val-Leu-Arg-D-Val-OBzl] (Cbz-R[dV]LR[dV]-OBn) | 0.27 | 38.3 | 55.1 |
| CC[C@H](C)[C@H](NC(=O)[C@@H](CCCNC(=N)N)NC(=O)[C@H](CC(C)C)NC(=O)[C@@H](NC(=O)[C@@H](N)CCCNC(=N)N)[C@@H](C)CC)C(=O)O [H-Arg-Ile-Leu-D-Arg-Ile-OH] (H-RIL[dR]I-OH) | 0.78 | 40.8 | 93.7 |
| Z-Arg-I-le-Glu(OtBu)-Arg-Ile-NH2 [Z-Arg-Ile-Glu(OtBu)-Arg-Ile-NH2] | 0.47 | 36.1 | 91.5 |
| CC[C@H](C)[C@H](NC(=O)[C@H](CCCNC(=N)N)NC(=O)OCc1ccccc1)C(=O)N[C@@H](COC(C)(C)C)C(=O)N[C@@H](CCCNC(=N)N)C(=O)N1CCC[C@H]1C(=O)OC(C)(C)C [Z-Arg-Ile-Ser(tBu)-Arg-Pro-OtBu] (Cbz-RIS(tBu)RP-OtBu) | 0.44 | 37.8 | 88.9 |
